Measured values taken from patent US20160207904A1, “CRYSTALLINE 2-HYDROXY-6-((2-(1-ISOPROPYL-1H-PYRAZOL-5-YL)PYRIDIN-3-YL)METHOXY)BENZALDEHYDE ANSOLVATE SALTS” (GLOBAL BLOOD THERAPEUTICS, INC., priority 2013, published 2016).

How the values were obtained:
Type in all cases: physicochemical
[1] = Interconversion study (slurries of mixed forms in ethyl acetate or ethanol, XRPD); details: ambient condition, hydrochloride
Method: (§1) In an interconversion study, a mixture of all identified crystal forms turned into Form I after slurry experiments in ethyl acetate or ethanol. […] The XRPD patterns and microscopy images of the three crystal forms are shown in FIG. 6 and FIG. 7, respectively.
Interconversion Study: Interconversion experiments were carried out by making slurries containing the same amount of different forms solids in ethyl acetate or ethanol. The slurries were kept stirring for days at ambient condition. The insoluble solids were recovered by filtration and examined using XRPD.
Interconversion experiments were performed with the various crystalline forms. Samples of equal amount of Form I mixed with Form II in solvents (ethyl acetate or ethanol) were slurried at ambient condition with covering. The remaining solids were collected by filtration and examined by XRPD. […] Some observed differences in the —OH stretch region at 3500 cm−1 in FTIR were most likely due to the preferred orientation which may be caused by particle size and morphology difference.

[2] = Dynamic vapor sorption (DVS); details: at 80% RH, 25.0±1.0° C.
Method: Dynamic Vapor Sorption (DVS): Dynamic moisture adsorption and desorption was studied using IGA Sorp (Hidden Isochema Ltd.Warrington, UK). About 5 mg (3˜5 mg) of a prepared sample was placed in a sample basket and hung in the measuring chamber of an IGA Sorp. For an isotherm test, the chamber temperature is maintained by a water bath at constant 25.0±1.0° C. The sample was tested at a targeted RH range from 0% to 90% full cycle in step mode. The analysis is performed in 10% increment. Time duration at each RH was set as […] Solid State Characterizaton: Form I of Compound 1 hydrochloride was characterized by XRPD (FIG. 1), TGA (FIG. 2), DSC (FIG. 3), DVS (FIG. 4). […] The crystal form of the initial drug substance is assigned as Form I.

[3] = Physical stability of crystal forms at ambient conditions; details: converted into Form I or a mixture of Form I and its free base
From the text: Methods: Three crystal forms of 2-hydroxy-6-((2-(1-isopropyl-1H-pyrazol-5-yl)pyridin-3-yl)methoxy)benzaldehyde hydrochloride with different XRPD patterns were identified in this study based on a matrix of crystallizations in various solvents, screened in 96-wells as described below. An initial drug substance was assigned as Form I. Form I was also obtained in numerous conditions during solvent crystallization in the 96-well screen and in slurry studies. Form II and Form III were also generated. Solids obtained were characterized by X-ray powder diffraction (XRPD), differential scanning calorimetry (DSC), thermogravimetry (TGA), polarizing microscope (PLM) and Fourier transform infrared spectrometer (FTIR).
as §1

[4] = Heating to 80° C. by TGA, then XRPD; details: heated to 80° C. by TGA
Method: Powder X-RayDiffraction (XRPD): The solid samples were examined using X-ray diffractometer (Bruker D8 advance). The system is equipped with LynxEye detector. The samples were scanned from 3 to 40° 2θ, at a step size 0.02° 2θ. The tube voltage and current were 40 KV and 40 mA respectively. The sample was transferred from sample container onto zero background XRD holder and gently ground. TGA Analysis: TGA analysis was carried out on a TA Instruments TGA Q500. Samples was placed in a tarred platinum or aluminum pan, automatically weighed and inserted into the TGA furnace. The samples were heated at a rate of 10° C./min to final temperature of 300° C. The purge gas is nitrogen for balance at 40 ml/min and for the sample at 60 ml/min, respectively. Scale-up of Form II: 60 mg or 40 mg of Compound 1 hydrochloride was dissolved in 3 mL of ethanol or 1-butanol, respectively. Both solutions were filtered, filtrates were collected and then the two filtrates were combined in (1:1) volume ratio. The resulting solution was allowed to evaporate at ambient condition to dryness to yield Form II.

water picked up (DVS profile) [2] [%] | stability of crystal form at ambient conditions [3] | XRPD after heating [4] | SMILES | outcome of interconversion (slurry) experiments / relative thermodynamic stability [1]
< 1 |  |  | CC(C)n1nccc1-c1ncccc1COc1cccc(O)c1C=O.Cl [Form I, 2-hydroxy-6-((2-(1-isopropyl-1H-pyrazol-5-yl)pyridin-3-yl)methoxy)benzaldehyde hydrochloride] | the most thermodynamically stable form
 | unstable at ambient conditions | remained unchanged | CC(C)n1nccc1-c1ncccc1COc1cccc(O)c1C=O.Cl [Form II, 2-hydroxy-6-((2-(1-isopropyl-1H-pyrazol-5-yl)pyridin-3-yl)methoxy)benzaldehyde hydrochloride] | transforms almost entirely to Form I crystals
 | unstable at ambient conditions |  | CC(C)n1nccc1-c1ncccc1COc1cccc(O)c1C=O.Cl [Form III, 2-hydroxy-6-((2-(1-isopropyl-1H-pyrazol-5-yl)pyridin-3-yl)methoxy)benzaldehyde hydrochloride] | 
